Experimental data reported in PubChem BioAssay (NCI).
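A five-concentration, 48-hour dose response in 96-well plates underlies each endpoint, interpolated linearly between surrounding concentrations. GI50: concentration for 50% inhibition of growth. TGI: concentration producing complete growth inhibition.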

Experiments:
Assay in all cases: NCI tumour cell line growth inhibition, 48 h
ACHN renal = test system: ACHN renal
OVCAR-8 ovarian = test system: OVCAR-8 ovarian
SK-MEL-28 melanoma = test system: SK-MEL-28 melanoma
HT29 colon = test system: HT29 colon
SNB-75 CNS = test system: SNB-75 CNS
OVCAR-3 ovarian = test system: OVCAR-3 ovarian
RXF 393 renal = test system: RXF 393 renal
SF-268 CNS = test system: SF-268 CNS
HCC-2998 colon = test system: HCC-2998 colon
UACC-62 melanoma = test system: UACC-62 melanoma
SN12C renal = test system: SN12C renal
EKVX NSCLC = test system: EKVX NSCLC
HCT-116 colon = test system: HCT-116 colon
A549 NSCLC = test system: A549 NSCLC
CAKI-1 renal = test system: CAKI-1 renal
DU-145 prostate = test system: DU-145 prostate
OVCAR-4 ovarian = test system: OVCAR-4 ovarian
HOP-92 NSCLC = test system: HOP-92 NSCLC
SF-295 CNS = test system: SF-295 CNS
TK-10 renal = test system: TK-10 renal
BT-549 breast = test system: BT-549 breast
T-47D breast = test system: T-47D breast
NCI-H460 lung = test system: NCI-H460 lung
SK-OV-3 ovarian = test system: SK-OV-3 ovarian
KM12 colon = test system: KM12 colon
HCT-15 colon = test system: HCT-15 colon
PC-3 prostate = test system: PC-3 prostate
SK-MEL-2 melanoma = test system: SK-MEL-2 melanoma
IGROV1 ovarian = test system: IGROV1 ovarian
SK-MEL-5 melanoma = test system: SK-MEL-5 melanoma
SF-539 CNS = test system: SF-539 CNS
UO-31 renal = test system: UO-31 renal
M14 melanoma = test system: M14 melanoma
RPMI-8226 leukemia = test system: RPMI-8226 leukemia
U251 CNS = test system: U251 CNS
OVCAR-5 ovarian = test system: OVCAR-5 ovarian
MDA-MB-435 = test system: MDA-MB-435
UACC-257 melanoma = test system: UACC-257 melanoma
A498 renal = test system: A498 renal
MALME-3M melanoma = test system: MALME-3M melanoma
MCF7 breast = test system: MCF7 breast
LOX IMVI melanoma = test system: LOX IMVI melanoma
MDA-MB-231 breast = test system: MDA-MB-231 breast
HS 578T breast = test system: HS 578T breast
SW-620 colon = test system: SW-620 colon
NCI-H23 lung = test system: NCI-H23 lung
NCI-H226 lung = test system: NCI-H226 lung
K-562 leukemia = test system: K-562 leukemia
MOLT-4 leukemia = test system: MOLT-4 leukemia
786-0 renal = test system: 786-0 renal
COLO 205 colon = test system: COLO 205 colon
NCI-H522 lung = test system: NCI-H522 lung
CCRF-CEM leukemia = test system: CCRF-CEM leukemia
HOP-62 NSCLC = test system: HOP-62 NSCLC
SNB-19 CNS = test system: SNB-19 CNS

`O=C(NN1C(=O)CSC12CCCCC2)c1[nH]c2ccc(Br)cc2c1-c1ccccc1` showed a GI50 (ACHN renal) of 22.6 µM, a TGI (ACHN renal) of 58.1 µM and a GI50 (OVCAR-8 ovarian) of 16.3 µM. It also gave a TGI (OVCAR-8 ovarian) of 30.1 µM, a GI50 (SK-MEL-28 melanoma) of 24.8 µM and a TGI (SK-MEL-28 melanoma) of 69 µM. For the same molecule, the GI50 (HT29 colon) was 13.9 µM, the TGI (HT29 colon) was 31.5 µM and the GI50 (SNB-75 CNS) was 15.9 µM. The TGI (SNB-75 CNS) was 33.7 µM, the GI50 (OVCAR-3 ovarian) was 15.5 µM and the TGI (OVCAR-3 ovarian) was 29.4 µM. The GI50 (RXF 393 renal) was 14.2 µM, the TGI (RXF 393 renal) was 30.3 µM and the GI50 (SF-268 CNS) was 20.3 µM. For the same molecule, the TGI (SF-268 CNS) was 67.1 µM, the GI50 (HCC-2998 colon) was 25.2 µM and the TGI (HCC-2998 colon) was 70.4 µM. The GI50 (UACC-62 melanoma) was 10.9 µM, the TGI (UACC-62 melanoma) was 39.8 µM and the GI50 (SN12C renal) was 17.6 µM. For the same molecule, the TGI (SN12C renal) was 34.9 µM, the GI50 (EKVX NSCLC) was 48.2 µM and the TGI (EKVX NSCLC) was > 100 µM. For the same molecule, the GI50 (HCT-116 colon) was 16.4 µM, the TGI (HCT-116 colon) was 35.3 µM and the GI50 (A549 NSCLC) was 15 µM. It also gave a TGI (A549 NSCLC) of 30.5 µM, a GI50 (CAKI-1 renal) of 25.5 µM and a TGI (CAKI-1 renal) of 80 µM. It also gave a GI50 (DU-145 prostate) of 19.1 µM, a TGI (DU-145 prostate) of 38.8 µM and a GI50 (OVCAR-4 ovarian) of 13.3 µM. It also gave a TGI (OVCAR-4 ovarian) of 39.6 µM, a GI50 (HOP-92 NSCLC) of 20.7 µM and a TGI (HOP-92 NSCLC) of 42.3 µM. It also gave a GI50 (SF-295 CNS) of 16.2 µM, a TGI (SF-295 CNS) of 31.9 µM and a GI50 (TK-10 renal) of 17 µM. It also gave a TGI (TK-10 renal) of 33.2 µM, a GI50 (BT-549 breast) of 20.1 µM and a TGI (BT-549 breast) of 44.4 µM. The GI50 (T-47D breast) was 27.9 µM, the TGI (T-47D breast) was > 100 µM and the GI50 (NCI-H460 lung) was 20.7 µM. For the same molecule, the TGI (NCI-H460 lung) was 57.9 µM, the GI50 (SK-OV-3 ovarian) was 46.3 µM and the TGI (SK-OV-3 ovarian) was > 100 µM. For the same molecule, the GI50 (KM12 colon) was 16.9 µM, the TGI (KM12 colon) was 33.4 µM and the GI50 (HCT-15 colon) was 17.1 µM. It also gave a TGI (HCT-15 colon) of 39.7 µM, a GI50 (PC-3 prostate) of 16.5 µM and a TGI (PC-3 prostate) of 32.2 µM. The GI50 (SK-MEL-2 melanoma) was 36.2 µM, the TGI (SK-MEL-2 melanoma) was > 100 µM and the GI50 (IGROV1 ovarian) was 11.3 µM. For the same molecule, the TGI (IGROV1 ovarian) was 28.6 µM, the GI50 (SK-MEL-5 melanoma) was 31.2 µM and the TGI (SK-MEL-5 melanoma) was > 100 µM. It also gave a GI50 (SF-539 CNS) of 21 µM, a TGI (SF-539 CNS) of 39.9 µM and a GI50 (UO-31 renal) of 22.4 µM. For the same molecule, the TGI (UO-31 renal) was 68.9 µM, the GI50 (M14 melanoma) was 27 µM and the TGI (M14 melanoma) was 79.7 µM. The GI50 (RPMI-8226 leukemia) was 12.7 µM, the TGI (RPMI-8226 leukemia) was 33.2 µM and the GI50 (U251 CNS) was 15.8 µM. For the same molecule, the TGI (U251 CNS) was 31.9 µM, the GI50 (OVCAR-5 ovarian) was 31.3 µM and the TGI (OVCAR-5 ovarian) was 95.5 µM. The GI50 (MDA-MB-435) was 18.8 µM, the TGI (MDA-MB-435) was 48.9 µM and the GI50 (UACC-257 melanoma) was 26.4 µM. It also gave a TGI (UACC-257 melanoma) of 72.5 µM, a GI50 (A498 renal) of 24.1 µM and a TGI (A498 renal) of 60.5 µM. It also gave a GI50 (MALME-3M melanoma) of 20.3 µM, a TGI (MALME-3M melanoma) of 41.3 µM and a GI50 (MCF7 breast) of 14.6 µM. For the same molecule, the TGI (MCF7 breast) was 31.5 µM, the GI50 (LOX IMVI melanoma) was 22 µM and the TGI (LOX IMVI melanoma) was 50.3 µM. It also gave a GI50 (MDA-MB-231 breast) of 20.4 µM, a TGI (MDA-MB-231 breast) of 42.3 µM and a GI50 (HS 578T breast) of 23.1 µM. For the same molecule, the TGI (HS 578T breast) was 66.1 µM, the GI50 (SW-620 colon) was 34.7 µM and the TGI (SW-620 colon) was > 100 µM. It also gave a GI50 (NCI-H23 lung) of 19.4 µM, a TGI (NCI-H23 lung) of 41.5 µM and a GI50 (NCI-H226 lung) of 23 µM. For the same molecule, the TGI (NCI-H226 lung) was 55.7 µM, the GI50 (K-562 leukemia) was 13.4 µM and the TGI (K-562 leukemia) was 56.6 µM. The GI50 (MOLT-4 leukemia) was 8.79 µM, the TGI (MOLT-4 leukemia) was 46.9 µM and the GI50 (786-0 renal) was 18.9 µM. For the same molecule, the TGI (786-0 renal) was 38.9 µM, the GI50 (COLO 205 colon) was 26.9 µM and the TGI (COLO 205 colon) was > 100 µM. For the same molecule, the GI50 (NCI-H522 lung) was 18.7 µM, the TGI (NCI-H522 lung) was 49.5 µM and the GI50 (CCRF-CEM leukemia) was 19.6 µM. It also gave a TGI (CCRF-CEM leukemia) of 52.8 µM, a GI50 (HOP-62 NSCLC) of 23.6 µM and a TGI (HOP-62 NSCLC) of 51.4 µM. For the same molecule, the GI50 (SNB-19 CNS) was 24.1 µM and the TGI (SNB-19 CNS) was 64.2 µM.
